# Data as given in US12527870B2, “Peptide hydrogels for delivery of immunosuppressive drugs and uses thereof” (THE JOHNS HOPKINS UNIVERSITY, priority 2018, dated 2026).
# Where a name gives a salt, the structure may show the parent alone.
# How the values were obtained:
# Format in all cases: physicochemical
# [1] = Ex vivo drug release from peptide hydrogel into buffer
# From the text: FIGS. 1A-1D: Release profiles of tofacitinib from peptide hydrogels. (FIG. 1A) Sustained release profile of tofacitinib free base vs burst release of tofacitinib citrate salt from MAX8 peptide hydrogel at early time points. (FIG. 1B) Release profiles of tofacitinib free base and citrate at longer time duration. (FIG. 1C) Variation of release profiles of tofacitinib free base based on the initial amount of drug loading. (FIG. 1D) Release profiles of tofacitinib free base from MAX1 and HLT2 peptide hydrogels. Concentration of tofacitinib free base was 16 mM. In each case, release of the drug was monitored from the hydrogel into an infinite sink (25 mM HEPES, 150 mM NaCl, pH 7.4) at 37° C. Lines are included for visual guidance.
# A MAX8 peptide stock solution was prepared in glass vials by dissolving 1 mg of peptide in 50 μL of chilled sterile water. Tofacitinib free base and tofacitinib citrate (purchased from LC Laboratories, Woburn, MA) stock solutions were prepared in spectrophotometric grade DMSO with final concentrations of 100 μg/μL and 160 μg/μL, respectively. Concentration of the stock solution was determined in such a way that would maintain equal ratio of DMSO to HEPES buffered saline (HBS) (v/v) while loading equimolar concentration of tofacitinib free base and citrate into the hydrogel. Required volume of drug stock solution was added into a chilled solution of HBS (2X HBS, 50 mM HEPES, 300 mM NaCl, pH 7.4) to make the final volume as 50 μL. At this point, care was taken to avoid mixing before the peptide stock solution had been transferred to the resulting suspension. Peptide solution was added and samples were then mixed to initiate hydrogelation, resulting in a 1.0 wt % gel of a final total volume of 100 μL containing required amount of loaded drug. Tofacitinib free base was loaded to the final concentrations of 1.6, 3.2 and 16 mM. For tofacitinib citrate salt, only hydrogels with a final concentration of 16 mM loaded drug were considered for drug release studies. Samples were placed in an incubator at 37° C. for 24 hours. After 24 hours, 1 mL of 1X HBS (25 mM HEPES, 150 mM NaCl, pH 7.4) was added to the top of gel. At scheduled time points, the entire volume of buffer above the gel was removed and replaced with fresh buffer. Drug concentration was determined for each removed aliquot as a function of time by measuring absorbance at 290 nm in a UV-VIS spectrophotometer (Agilent 8453) with a standard curve constructed under similar conditions.
# [2] = Crystallization of drug within peptide hydrogel (phase-contrast, confocal, polarized light microscopy)
# Protocol: During hydrogel-mediated encapsulation, when used at a loading concentration of 16 mM, tofacitinib free base initially produced an opaque suspension that turned into a transparent hydrogel as the drug dissolved in the self-assembled peptide matrix at 37° C. during the first 2-3 hours. […] Approximately 10 μL of the hydrogel was then placed on a glass slide and covered with a cover slip. Phase-contrast microscopy (EVOS FL Cell Imaging System) and confocal microscopy (LSM 710) were used to characterize the drug aggregates suspended in the hydrogel matrix. Crystallinity of the aggregates was verified from polarized light microscopy at low and high magnification.
# Shown in FIGS. 2A-2C are phase contrast images of tofacitinib free base encapsulated within MAX8 peptide hydrogel at the drug concentrations of 16 mM (FIG. 2A), 1.6 mM (FIG. 2B) and blank MAX8 peptide hydrogel (FIG. 2C). Shown in FIGS. 2D-2E are confocal microscopy-generated differential interference contrast images of tofacitinib free base microcrystals dispersed in MAX8 peptide gel network at a drug concentration of 16 mM.
# [3] = Release profile from MAX8 hydrogel with varying DMSO volume ratio; conditions: 16 mM, DMSO 2-30% by volume
# Protocol: FIGS. 6A-6B: Release profile of tofacitinib from MAX8 hydrogel. (FIG. 6A) Cumulative release profiles of tofacitinib (free base) from MAX8 hydrogel containing different volume ratios of DMSO versus hydrogel. In each case, the tofacitinib stock solution was prepared in DMSO and an increasing volume of the DMSO stock was added while constituting the hydrogel. The total concentration of loaded tofacitinib was constant at 16 mM. Release profile of the drug was monitored from the hydrogel into buffer (25 mM HEPES, 150 mM NaCl, pH 7.4) at 37° C. (FIG. 6B) Release rate of tofacitinib from MAX8 hydrogel containing varying volumes of DMSO during the first 4 hours.
# In each case, the tofacitinib stock solution was prepared in DMSO and an increasing volume of the DMSO stock was added while constituting the hydrogel. The total concentration of loaded tofacitinib was constant at 16 mM. The release profile of the drug was monitored from the hydrogel into buffer (25 mM HEPES, 150 mM NaCl, pH 7.4) at 37° C.
# [4] = MAX8 hydrogel, 16 mM loading, HBS pH 7.4, 37° C.
# [5] = MAX8 hydrogel, 16 mM loading, 37° C.
SMILES,"release profile from MAX8 hydrogel, free base vs citrate [1, 4]","crystallization within MAX8 hydrogel [2, 5]","period to show similar cumulative release (over 75%) ([1]; MAX8 hydrogel, 16 mM loading, crystallized state, HBS pH 7.4, 37° C.) [days]","release profile at lower loading compared to 16 mM ([1]; MAX8 hydrogel, 0.48, 1.6 and 3.2 mM loading)","drug released within the first 10 hours ([1]; MAX8 hydrogel, loading 0.48 to 3.2 mM, soluble (not crystallized) drug, into 25 mM HEPES, 150 mM NaCl, pH 7.4, 37° C.)",effect of decreasing the DMSO concentration on solubility [3],"crystallization within HLT2 hydrogel ([2]; HLT2 hydrogel, 16 mM loading)","crystallization within MAX1 hydrogel ([2]; MAX1 hydrogel, 16 mM loading)",loading concentration needed for crystallization ([2]; MAX8 hydrogel),"time of in situ crystallization after dissolution ([2]; MAX8 hydrogel, 16 mM, 37° C., after the first 2-3 hours) [h]","crystallization within MAX8 hydrogel below 16 mM ([2]; MAX8 hydrogel, loading concentration below 16 mM)"
C[C@@H]1CCN(C(=O)CC#N)C[C@@H]1N(C)c1ncnc2[nH]ccc12 [tofacitinib citrate],released faster,did not crystallize,,,,,,,,,
"C[C@@H]1CCN(C(=O)CC#N)C[C@@H]1N(C)c1ncnc2[nH]ccc12 [tofacitinib free base, 3-((3R,4R)-4-methyl-3-(methyl (7H-pyrrolo[2,3-d]pyrimidin-4-yl)amino)piperidin-1-yl)-3-oxopropanenitrile]","slower, more sustained release",gradually crystallized in situ,6,more rapid release,over 75%,reduces the solubility,crystallized,crystallized,above 3.2 mM,~20,no visible indication of crystallization
